Patent publication US7973218B2, “Methods and compositions for controlling weeds” (Pioneer Hi-Bred International, Inc., priority 2005, dated 2011)
Like-named read-outs stand apart in the source and are kept apart here.

Legend:
[1] = system: Hairy Fleabane (Conyza bonariensis), glyphosate sensitive biotype; assay: Control of hairy fleabane by glyphosate, metsulfuron-methyl and two additives; type: in vivo; details: 10-15 leaf stage, 200 L ha^−1
Experimental: This example included the same treatments as used in Example 11, except the treatments were carried out on a glyphosate sensitive biotype of Kleinskraalhans (Conyza bonariensis).

[2] = system: GAT-HRA maize; assay: Postemergence herbicide spray of maize at V2 stage, injury evaluated 10-14 days after; type: in vivo; details: 200 g ai/ha (metsulfuron-methyl 35 g ai/ha)
Experimental: GAT-HRA maize plants were evaluated for tolerance to glyphosate and other herbicides. One protocol used in this evaluation was as follows. At the V2 stage (Ritchie and Hanway (1982), “How a corn plant develops” Spec. Rep. 48. (Coop. Ext. Ser., Iowa State Univ., Ames, Iowa)), plant heights were measured and herbicides were applied by spray application. Ten to fourteen days after the spray application, the transgenic plants were evaluated for injury symptoms and measured for plant height again in order to determine plant growth rates.
Plants were then evaluated at various times after treatment, such as 10 or 14 days after treatment. […] Leaf samples were taken from GAT-HRA plants and used in quantitative PCR analysis and other analyses to determine the number and arrangement of copies of the GAT and HRA polynucleotides that had been integrated into the plant genome.
Other protocols for evaluation included treatment with imidazolinone herbicides, such as the commercial herbicide Lightning® (a combination of imazapyr and imazethapyr), which was applied to GAT-HRA maize at the V2 leaf stage at four times the field label rate (250 g ai/ha). […] Another protocol for evaluation included treatment with imidazolinone herbicides as well as sulfonylurea and glyphosate herbicides. In these tests, GAT-HRA maize was treated with various combinations of Lightning® (imazapyr and imazethapyr), Basis® (rimsulfuron and thifensulfuron-methyl) and WeatherMAX® (glyphosate potassium salt). These herbicides were applied at the V2 stage as follows: Lightning® at twice the field label rate (1.8 oz ai/ac (133 ml ai/ha)), Basis® at twice the field label rate (0.5 oz ai/ac (36.9 ml ai/ha)) and WeatherMax® at four times the field label rate (43 oz ai/ac). Fourteen days after the treatment application, the plants were evaluated. […] “Field label rate” refers to the application rate specified on the product label. Where the application rate for a particular situation is a range of rates, as used herein, the term “field label rate” indicates the upper end of that range. […]

[3] = system: control maize; assay: as above; type: in vivo; details: 200 g ai/ha (metsulfuron-methyl 35 g ai/ha)
[4] = system: non-glyphosate resistant ryegrass; assay: Control of ryegrass by glyphosate, metsulfuron-methyl and two additives; type: in vivo; details: metsulfuron-methyl (BRUSH-OFF) alone
Experimental: The example was conducted on non-glyphosate resistant ryegrass. As provided in Table 23, all treatments that included glyphosate [180 g a.i. L ha^−1 (0.5 L glyphosate (SCAT®))] plus metsulfuron-methyl (BRUSH-OFFS®) (5 and 10 g ha^−1) gave 100% control of the ryegrass.

[5] = system: Parent elite stiff stalk inbred corn; assay: Preemergence herbicide application to potted corn (fresh weight, visual injury); type: in vivo; details: for Fresh Weight: fresh shoots weighed 4 weeks after treatment, untreated 36.7 g; for Crop visual injury at 200 g/ha: Zea mays, pre-emergence, 672 h, read-out: % Visual Injury
[6] = system: Heterozygous GAT-HRA corn; assay: as above; type: in vivo; details: for Fresh Weight: fresh shoots weighed 4 weeks after treatment, untreated 47.0 g; for Crop visual injury at 200 g/ha: Zea mays, pre-emergence, 672 h, read-out: % Visual Injury
[7] = system: Parent elite stiff stalk inbred corn; assay: Postemergence herbicide application to potted corn (fresh weight, visual injury); type: in vivo; details: for % Visual Injury / % visual injury to corn at 200 g/ha: 0% no injury, 100% plant death; for Fresh Weight: weighed 2 weeks after treatment, untreated 76.4 g
[8] = system: Heterozygous GAT-HRA corn; assay: as above; type: in vivo; details: for % Visual Injury / Visual crop injury (%) at 200 g/ha: 0% no injury, 100% plant death; for Fresh Weight: weighed 2 weeks after treatment, untreated 98.8 g
[9] = system: Soybeans comprising the lead GAT7 event and also having HRA; assay: Greenhouse test confirming the field trial (Example 6B); type: in vivo, soybean; details: GAT/HRA Soybeans
Excerpt: Example 6B provides greenhouse data that confirms the field trial data provided above in Example 6A. Soybeans comprising the lead GAT7 event and also having HRA were used in the studies.

[10] = preemergence, 200 g/ha, mean of four replications
[11] = 200 g/ha, mean of four replications
[12] = Zea mays, post-emergence, 200 g/ha, mean of four replications
[13] = preemergence, 200 g/ha, 0% no injury, 100% plant death, mean of four replications
[14] = Zea mays, post-emergence, 1870 g/ha

For `COC(=O)c1ccccc1S(=O)(=O)NC(=O)Nc1nc(C)nc(OC)n1` [Metsulfuron-methyl (BRUSH-OFF ®)], the “Control (%)” value ([1]; metsulfuron-methyl (BRUSH-OFF) 5 g/ha) was 100% and the “Control (%)” value ([1]; metsulfuron-methyl (BRUSH-OFF) 10 g/ha) was 100%.

`COC(=O)c1ccccc1S(=O)(=O)NC(=O)Nc1nc(C)nc(OC)n1` [Metsulfuron-methyl, methyl 2-[[[[(4-methoxy-6-methyl-1,3,5-triazin-2-yl)amino]carbonyl]amino]sulfonyl]benzoate] was tested, and the “damage from the treatment” value [2] was “no significant damage”, the “damage from the treatment” value [3] was “severely damaged or killed” and the “effect on its own” value [4] was “did nothing accept stunt the ryegrass plants slightly”.

In the case of Imazamethabenz-methyl, the “Fresh Weight” value [5, 10] is reported as 36.2 g, the “Fresh Weight” value [6, 10] is reported as 48.5 g and the “% Visual Injury” value [7, 11] is reported as 11%. The “Fresh Weight” value [7, 11] was 66.9 g, the “% Visual Injury” value [8, 11] was 16% and the “Fresh Weight” value [8, 11] was 95.0 g.

In the case of `CCCOc1nn(C(=O)NS(=O)(=O)c2ccccc2C(=O)OC)c(=O)n1C` [Propoxycarbazone Na^+, methyl 2-[[[(4,5-dihydro-4-methyl-5-oxo-3-propoxy-1H-1,2,4-triazol-1-yl)carbonyl]amino]sulfonyl]benzoate], the Crop visual injury at 200 g/ha [5] is reported as 100%, the “Fresh Weight” value [5, 10] is reported as 0.6 g and the Crop visual injury at 200 g/ha [6] is reported as 100%. For the same compound, the “Fresh Weight” value [7, 11] was 1.9 g, the % visual injury to corn at 200 g/ha [7, 12] was 100% and the Visual crop injury (%) at 200 g/ha [8, 12] was 9%.

With `CCc1cnc(C2=NC(C)(C(C)C)C(=O)N2)c(C(=O)O)c1` (centres unmarked) [Imazethapyr] the “% Growth Reduction” value ([9]; Rimsulfuron 0 + Imazethapyr 560 g ai/ha, Treatment # 4) was −1% and the “% Growth Reduction” value ([9]; Rimsulfuron 0 + Imazethapyr 1024 g ai/ha, Treatment # 5) was 10%.

In the case of `CCOC(=O)c1ccccc1S(=O)(=O)NC(=O)Nc1nc(Cl)cc(OC)n1` [Chlorimuron-ethyl, ethyl 2-[[[[(4-chloro-6-methoxy-2-pyrimidinyl)amino]carbonyl]amino]sulfonyl]-benzoate], the “damage from the treatment” value [2] is reported as “no significant damage” and the “damage from the treatment” value [3] is reported as “severely damaged or killed”.

In the case of `COC(=O)c1ccc(C(F)(F)F)nc1S(=O)(=O)NC(=O)Nc1nc(OC)cc(OC)n1` [Flupyrsulfuron-methyl Na^+, methyl 2-[[[[(4,6-dimethoxy-2-pyrimidinyl)amino]carbonyl]amino]sulfonyl]-6-(trifluoromethyl)-3-pyridinecarboxylate], the Crop visual injury at 200 g/ha [5, 13] is reported as 87%, the Crop visual injury at 200 g/ha [6, 13] is reported as 90% and the “Fresh Weight” value [7, 11] is reported as 5.2 g. It also gave a % visual injury to corn at 200 g/ha [7, 12] of 95% and a Visual crop injury (%) at 200 g/ha [8, 12] of 4%.

For `COc1nn(C(=O)NS(=O)(=O)c2ccccc2OC(F)(F)F)c(=O)n1C` [Flucarbazone Na^+, 4,5-dihydro-3-methoxy-4-methyl-5-oxo-N-[[2-(trifluoromethoxy)phenyl]sulfonyl]-1H-1,2,4-triazole-1-carboxamide], the Crop visual injury at 200 g/ha [5, 13] was 100%, the “Fresh Weight” value [5, 10] was 0.0 g and the Crop visual injury at 200 g/ha [6, 13] was 40%. For the same compound, the “Fresh Weight” value [7, 11] was 3.1 g, the % visual injury to corn at 200 g/ha [7, 12] was 100% and the “Fresh Weight” value [8, 11] was 86.0 g. The Visual crop injury (%) at 200 g/ha [8, 12] was 14%.

In the case of `CC(C)C1(C)N=C(c2ncccc2C(=O)O)NC1=O` (centres unmarked) [Imazapyr], the “damage from the treatment” value [2] is reported as “no significant damage” and the “damage from the treatment” value [3] is reported as “severely damaged or killed”.

In the case of `COc1cc(OC)nc(Sc2cccc(Cl)c2C(=O)[O-])n1.[Na+]` [Pyrithiobac Na^+], the “Fresh Weight” value [5, 10] is reported as 0.0 g, the “% Visual Injury” value [7, 11] is reported as 100% and the “Fresh Weight” value [7, 11] is reported as 2.8 g. For the same compound, the “% Visual Injury” value [8, 11] was 9%.

For `COc1cc(OC)nc(NC(=O)NS(=O)(=O)c2ncccc2OCC(F)(F)F)n1` [Trifloxysulfuron Na^+, N-[[(4,6-dimethoxy-2-pyrimidinyl)amino]-carbonyl]-3-(2,2,2-trifluoroethoxy)-2-pyridinesulfonamide], the Crop visual injury at 200 g/ha [5, 13] was 100%, the “Fresh Weight” value [5, 10] was 0.0 g and the Crop visual injury at 200 g/ha [6, 13] was 0%. For the same compound, the “Fresh Weight” value [6, 10] was 50.8 g, the “Fresh Weight” value [7, 11] was 1.0 g and the % visual injury to corn at 200 g/ha [7, 12] was 100%. For the same compound, the “Fresh Weight” value [8, 11] was 86.6 g and the Visual crop injury (%) at 200 g/ha [8, 12] was 29%.

With `COC(=O)c1ccccc1S(=O)(=O)NC(=O)Nc1nc(C)cc(C)n1` [Sulfometuron-methyl, methyl 2-[[[[(4,6-dimethyl-2-pyrimidinyl)amino]carbonyl]amino]sulfonyl]-benzoate] the “Fresh Weight” value [7, 11] was 2.0 g.

In the case of `O=C(O)CNCP(=O)(O)O` [glyphosate (ROUNDUP ®)], the “Control (%)” value ([1]; glyphosate (ROUNDUP, 360 g a.i. L^−1) 0.5 L/ha) is reported as 12%.

For `CCOc1nc(F)cc2nc(S(=O)(=O)Nc3c(Cl)cccc3C(=O)OC)nn12` [Chloransulam-methyl, methyl 3-chloro-2-[[(5-ethoxy-7-fluoro-[1,2,4]triazolo [1,5-c]pyrimidin-2-yl)sulfonyl]amino]benzoate], the Crop visual injury at 200 g/ha [5, 13] was 3%, the “Fresh Weight” value [5, 10] was 5.5 g and the Crop visual injury at 200 g/ha [6, 13] was 3%. For the same compound, the “Fresh Weight” value [7, 11] was 6.8 g, the % visual injury to corn at 200 g/ha [7, 12] was 96% and the Visual crop injury (%) at 200 g/ha [8, 12] was 3%.

`COC(=O)c1ccc(I)cc1S(=O)(=O)NC(=O)Nc1nc(C)nc(OC)n1` [Iodosulfuron-methyl Na^+, methyl 4-iodo-2-[[[[(4-methoxy-6-methyl-1,3,5-triazin-2-yl)amino]carbonyl]amino]sulfonyl]benzoate] was tested, and the Crop visual injury at 200 g/ha [5, 13] was 92%, the Crop visual injury at 200 g/ha [6, 13] was 5% and the “Fresh Weight” value [7, 11] was 3.5 g. For the same compound, the % visual injury to corn at 200 g/ha [7, 12] was 100%, the “Fresh Weight” value [8, 11] was 95.0 g and the Visual crop injury (%) at 200 g/ha [8, 12] was 1%.

With `CP(=O)(O)CCC(N)C(=O)O` (centres unmarked) [Glufosinate ammonium] the “Fresh Weight” value ([7]; 1870 g/ha) was 2.4 g, the % visual injury to corn at 1870 g/ha [7, 14] was 99% and the “Fresh Weight” value ([8]; 1870 g/ha) was 112.3 g. For the same compound, the Visual crop injury (%) at 1870 g/ha [8, 14] was 1%.

With `COC(=O)c1cccc(C)c1S(=O)(=O)NC(=O)Nc1nc(OCC(F)(F)F)nc(N(C)C)n1` [Triflusulfuron-methyl] the “Fresh Weight” value [5, 10] was 26.3 g, the “Fresh Weight” value [6, 10] was 53.5 g and the “% Visual Injury” value [7, 11] was 100%. For the same compound, the “Fresh Weight” value [7, 11] was 2.1 g, the “% Visual Injury” value [8, 11] was 8% and the “Fresh Weight” value [8, 11] was 110.9 g.
